39 compounds from patent US20110065762A1, “METHODS OF USE OF ANTIVIRAL COMPOUNDS” (priority 2009, published 2011) can be followed below.

The target in the first experiment is T1, M2(S31) (Influenza A virus, UniProt P0DOF5).
T1 construct: expressed in transfected cells; host or cells: CHO cells (membrane preparation adsorbed to SSM sensors)
T1 sequence (P0DOF5 whole entry): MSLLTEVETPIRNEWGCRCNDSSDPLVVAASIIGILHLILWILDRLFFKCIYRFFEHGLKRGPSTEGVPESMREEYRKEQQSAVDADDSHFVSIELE
Nature of the experiment: Cell-free electrophysiology of M2 proton channels on solid supported membranes (IonGate SURFE2R screen). The format is biochemical. As to conditions: 25 μM inhibitor, activation by pH jump 7.0 to 6.0, % inhibition=100×(1−I/Io), 25 µM.
Consider `N#CC1C2CC3CC1CC(O)(C3)C2` (stereo not drawn) [Example 8], for which the “IonGate_M2(S31)_Screen % Inhibition at 25 μM” value is “B (11-50% (B))”.

In the case of `N#CC1C2CC3CC1CC(O)(C3)C2` (stereo not drawn) [Example 9], the “IonGate_M2(S31)_Screen % Inhibition at 25 μM” value is “C (1-10% (C))”.

Consider `N=C(N)NC1C2CC3CC1CC(Cl)(C3)C2` (stereo not drawn) [Example 23], for which the “IonGate_M2(S31)_Screen % Inhibition at 25 μM” value is reported as “B (11-50% (B))”.

On to `N=C(N)NC1C2CC3CC1CC(Cl)(C3)C2` (stereo not drawn) [Example 24], for which the “IonGate_M2(S31)_Screen % Inhibition at 25 μM” value is on record as “A (51-95% (A))”.

The same experiment, now with this note: 25 μM inhibitor, activation by pH jump 7.0 to 6.0, % inhibition=100×(1−I/Io), read-out: IonGate_M2(S31)_Screen % Inhibition at 25 μM.
`NCC1(O)C2CC3CC(C2)CC1C3` (stereo not drawn) [Example 1]: the inhibition at 25 µM lay in the range of 51 to 95%.

As to `OCCNC1C2CC3CC(C2)CC1C3` (stereo not drawn) [Example 2], the inhibition at 25 µM lay within 51 to 95%.

Regarding `NC1C2CC3CC1CC(O)(C3)C2` (stereo not drawn) [Example 3], the inhibition at 25 µM was 11 to 50%.

As for `OC12CC3CC(C1)C(n1ccnc1)C(C3)C2` (stereo not drawn) [Example 4, 4-imidazol-1-yladamantan-1-ol], the inhibition at 25 µM was 11 to 50%.

Consider `NCC1C2CC3CC1CC(O)(C3)C2` (stereo not drawn) [Example 5], for which the inhibition at 25 µM is 11 to 50%.

Take `NCC1(O)C2CC3CC1CC(O)(C3)C2` (stereo not drawn) [Example 6]: the inhibition at 25 µM fell in the range of 11 to 50%.

`N=C(N)C1C2CC3CC(C2)CC1C3` (stereo not drawn) [Example 11]: the inhibition at 25 µM lay within 51 to 95%.

As for `N#CC1C2CC3CC1CC(Cl)(C3)C2` (stereo not drawn) [Example 12], the inhibition at 25 µM lay in the range of 11 to 50%.

As for `N=C(N)C1C2CC3CC1CC(Cl)(C3)C2` (stereo not drawn) [Example 14], the inhibition at 25 µM lay within 51 to 95%.

Turning to `NC1C2CC3CC1CC(Cl)(C3)C2` (stereo not drawn) [Example 15], the inhibition at 25 µM lay within 51 to 95%.

On to `N#CC1C2CC3CC(C2)CC1C3` (stereo not drawn) [Example 16], for which the inhibition at 25 µM lay in the range of 51 to 95%.

`O=[N+]([O-])C1C2CC3CC1CC(Cl)(C3)C2` (stereo not drawn) [Example 18]: the inhibition at 25 µM was in the range of 1 to 10%.

`NC1C2CC3CC(C2)CC1(O)C3` (stereo not drawn) [Example 19]: the inhibition at 25 µM was 51 to 95%.

For `O=[N+]([O-])C1C2CC3CC(C2)CC1(O)C3` (stereo not drawn) [Example 20], the inhibition at 25 µM was 11 to 50%.

Take `C1NC2C3CC4CC(C3)CC2(C4)O1` (stereo not drawn) [Example 21]: the inhibition at 25 µM lay in the range of 51 to 95%.

Regarding `NC1C2CC3CC1CC(S)(C3)C2` (stereo not drawn) [Example 22], the inhibition at 25 µM is 51 to 95%.

`NC1C2CC3CC(C2)CC1C3` (stereo not drawn) [Example 26]: the inhibition at 25 µM is 11 to 50%.

Turning to `C1C2CC3CC1CC(C2)C1NC31` (stereo not drawn) [Example 27], the inhibition at 25 µM lay in the range of 11 to 50%.

Consider `O=C1C(=O)C2CC3CC(CC1C3)C2` [Example 28], for which the inhibition at 25 µM was in the range of 11 to 50%.

With `O/N=C1\C(=N\O)C2CC3CC(CC1C3)C2` [Example 29], the inhibition at 25 µM lay in the range of 11 to 50%.

On to `NC1C2CC3CC(C2)CC(C3)C1N` (stereo not drawn) [Example 30], for which the inhibition at 25 µM fell in the range of 51 to 95%.

For `O=C1CC2CC3CC1CC(O)(C2)C3` (stereo not drawn) [Example 31], the inhibition at 25 µM was 11 to 50%.

As for `O/N=C1\CC2CC3CC1CC(O)(C2)C3` (stereo not drawn) [Example 32], the inhibition at 25 µM was 11 to 50%.

As for `NC1CC2CC3CC1CC(O)(C2)C3` (stereo not drawn) [Example 33], the inhibition at 25 µM was 11 to 50%.

For `OC12CC3CC(C1)C1NC1C(C3)C2` (stereo not drawn) [Example 34], the inhibition at 25 µM is 11 to 50%.

Regarding `O=C1C(=O)C2CC3CC1CC(O)(C3)C2` [Example 35], the inhibition at 25 µM is 1 to 10%.

For the compound `OC1C2CC3CC(CC(O)(C3)C2)C1O` (stereo not drawn) [Example 36], the inhibition at 25 µM was 1 to 10%.

Regarding `O=C1CC2CC3CC1CC(Cl)(C2)C3` (stereo not drawn) [Example 37], the inhibition at 25 µM lay within 11 to 50%.

Consider `O/N=C1\CC2CC3CC1CC(Cl)(C2)C3` (stereo not drawn) [Example 38], for which the inhibition at 25 µM lay within 11 to 50%.

On to `NC1CC2CC3CC1CC(Cl)(C2)C3` (stereo not drawn) [Example 39], for which the inhibition at 25 µM is 11 to 50%.

As to `O=C1C(=O)C2CC3CC1CC(Cl)(C3)C2` [Example 40], the inhibition at 25 µM was in the range of 1 to 10%.

As for `OC1C2CC3CC(CC(Cl)(C3)C2)C1O` (stereo not drawn) [Example 41], the inhibition at 25 µM lay within 1 to 10%.

In the case of `ON=C1C(=NO)C2CC3CC1CC(Cl)(C3)C2` [Example 42], the inhibition at 25 µM is 11 to 50%.

Consider `NC1C2CC3CC(CC(Cl)(C3)C2)C1N` (stereo not drawn) [Example 43], for which the inhibition at 25 µM lay within 1 to 10%.

As to `COC12CC3CC(C1)C(C#N)C(C3)C2` (stereo not drawn) [Example 44], the inhibition at 25 µM is 1 to 10%.
